# Where two headings read alike, the source gives them in different places. Residues, ends and D or L forms follow the SMILES beside them.
# Legend:
# [1] = Sensory evaluation (smell, color, taste) of Maillard reaction samples, Examples 52, 55-63; parameters: species or system human
# Experimental: For evaluation of the taste profile, the samples were tested by a panel of four people. 1 trained taster tasted independently the samples first. The taster was asked to describe the taste profile and score 0-5 according to the increasing sugar likeness, bitterness, aftertaste and lingering taste profiles. The first taster was allowed to re-taste, and then make notes for the sensory attributes perceived. Afterwards, another 3 tasters tasted and the attributes were noted and discussed openly to find a suitable description. In case that more than 1 taster disagreed with the results, the tasting was repeated. In some sensory test results (above), the taste rating was expressed by “+”, which means the intensity of the factors is shown by three levels. “+” for slight, “++” for moderate and “+++” for very strong.
# All samples were assessed at 22° C. after the Maillard reaction was stopped by placing the sealed vials in an ice bath. After 20 minutes in the ice bath the sealed vials were put in a water bath set to 22° C.
# The odor/smell was assessed independently by 3 persons; the final description was agreed after discussion. […] The taste was assessed independently by 3 persons either in the original samples or after appropriate dilution to achieve relevant concentrations of sugars and steviol-glycosides (i.e. 5-9% SE); the final description was agreed after discussion.
# [2] = Sensory evaluation of GSGs and SGs, thaumatin, NHDC and combinations (Example 255); parameters: species or system human
# Experimental: 4.5 ppm Thaumatin (equivalent to 10 ppm EPCalin) was dissolved in water. Increasing amounts of NHDC (1-5 ppm) were added to the solution and the sensory properties were evaluated.
# 50 ppm (GSGs and SGs) were dissolved in water. Increasing amounts of NHDC (1-5 ppm) were added to the solution and the sensory properties were evaluated.
# 50 ppm (GSGs and SGs) and 4.5 ppm Thaumatin (equivalent to 10 ppm EPCalin) were dissolved in water. Increasing amounts of NHDC (1-5 ppm) were added to the solution and the sensory properties were evaluated.
# Sweetness intensity was rated on 5-point scale
# [3] = cited from earlier work
# [4] = HPLC/DAD/MS analysis of reaction partners and MRI (Amadori) products; assay type: physicochemical; settings: 120 °C; for consumption in the reaction with Phe: KH2PO4 pH 7.8, 2.5 h, glucose present or not
# Experimental: Quantitative evaluation was performed using external standardization.
# [5] = Sensory evaluation (smell, color, taste) of Maillard reaction samples, Examples 52, 55-63; parameters: species or system human; settings: before reaction, 10 ml KH2PO4 pH 7.8 (Example 57)
# [6] = Assay to test DPPH radical-scavenging activity (Example 65); assay type: physicochemical; settings: combinations of amino acids and Reb-A, 100 °C; less pronounced than glucose or xylose
# Experimental: 1 mg 1,1-Diphenyl-2-picrylhydrazyl radical (DPPH)/ml ethanol, dilution to assay concentration were prepared in ethanol (40 μg/mL); Calibration samples were prepared with Ascorbic acid in a concentration of 0-10 μg/mL, as a negative control sample, water was used.
# Samples in aqueous solution were used as such or diluted with water.
# A 0.1 ml sample (or calibration standard) was mixed with 3.9 ml solution of DPPH (100 μMolar) and reacted while protected from light at room temperature for 30 min. Absorbance was determined at 517 nm against ethanol.
# 10 mM of amino acid and/or 10 mM sugar were dissolved in 10 ml 0.1 mM KH2PO4-buffer, pH=7.8.
# The samples were kept at 100° C. in sealed glass vials (Pyrex 15 ml with screw caps) for 0 (before reaction), 2.5 or 5.0 hours. Thereafter the samples were transferred to an ice water bath and cooled down to room temperature. These samples were diluted 1:10 and used for the test assay for anti-oxidant potential.
# [7] = negative controls (no carbohydrate source), 10 ml glycerin/water, 100 °C, 40 minutes
# [8] = Table 52.2: 1 ml water + 9 ml Glycerin, 0.67 h, 100 °C
# [9] = 1 ml water + 9 ml Glycerin, 1 h, 100 °C
# [10] = 1 ml water + 9 ml Glycerin, 2.0 h, 120 °C
# [11] = after reaction, 10 ml KH2PO4 pH 7.8, 2.5 h, 120 °C (Example 57)
# [12] = depends on the tested concentration compared with sucrose
# [13] = Table 52.3: 1 ml water + 9 ml Glycerin, 0.67 h, 100 °C
# [14] = after reaction, 10 ml KH2PO4 pH 7.8, 2.5 h, 120 °C (Example 58)
# [15] = before reaction, 10 ml KH2PO4 pH 7.8 (Example 58)
compound,measurement,setting,value
"N[C@@H](CS)C(=O)O [12.1 mg Cys, Cysteine]",Color,[1]; [7],Slightly Yellow
same,Smell,[1]; [7],Unpleasant (sulfur)
same,Taste,[1]; [7],Slightly sweet
"C[C@H](N)C(=O)O [0.1 mMol Ala, Alanine]",Color,[1]; [8],No Color
"COc1ccc(CCC(=O)c2c(O)cc(O[C@@H]3O[C@H](CO)[C@@H](O)[C@H](O)[C@H]3O[C@@H]3O[C@@H](C)[C@H](O)[C@@H](O)[C@H]3O)cc2O)cc1O [NHDC, Neohesperidin dihydrochalcone]",lingering,"[2]; 4, 5 ppm added to 50 ppm GSGs and SGs and 4.5 ppm Thaumatin",boosts the lingering
same,lingering,[2]; 4 and 5 ppm added to 4.5 ppm Thaumatin in water,long lasting lingering
same,sweetness,[3]; at threshold concentrations,1500-1800 times sweeter than sugar
same,sweetness,[3]; weight-for-weight,about 340 times sweeter than sugar
"C[C@H](N)C(=O)O [8.91 mg Ala, Alanine]",Color,[1]; [7],No color
same,Smell,[1]; [7],"Neutral, slightly Agar"
same,Taste,[1]; [7],Slightly sweet
"CC[C@H](C)[C@H](N)C(=O)O [13.11 mg Ile, Isoleucine]",Color,[1]; [7],No color
same,Smell,[1]; [7],Coffee
same,Taste,[1]; [7],Slightly sweet
"O=C[C@H](O)[C@@H](O)[C@H](O)CO [167 mMol Xyl, Xylose]",Color,[1]; [9],No color
same,Smell,[1]; [9],neutral/meat
same,Taste,[1]; [9],Sweet
"O=C[C@H](O)[C@@H](O)[C@H](O)[C@H](O)C(=O)O [0.1 mMol Gluc Acid, Glucuronic Acid]",Color,[1]; [10],Almost black
same,Intensity of Smell,[1]; [10],+++
same,Smell,[1]; [10],burnt bread
same,Taste,[1]; [10],Bitter
"N[C@@H](Cc1c[nH]c2ccccc12)C(=O)O [20.42 mg Try, Tryptophan]",Color,[1]; [7],Slightly Yellow
same,Smell,[1]; [7],Unpleasant (fecal)
same,Taste,[1]; [7],Slightly sweet
O=C[C@H](O)[C@@H](O)[C@H](O)[C@H](O)C(=O)O [Glucuronic Acid],Color,[1]; [11],Deep Yellow
same,Smell,[1]; [11],burnt bread
same,Taste,[1]; [11],Bitter
same,consumption in the reaction with Phe,[4],completely consumed
"N[C@@H](Cc1ccccc1)C(=O)O [0.1 mMol Phe, Phenylalanine]",Color,[1]; [10],Slightly Yellow
same,Intensity of Smell,[1]; [10],+
same,Smell,[1]; [10],"Caramel, burnt"
same,Taste,[1]; [10],sweet
same,Color,[1]; [8],Slightly Yellow
same,Smell,[1]; [8],"flowery/bloomy,"
same,Taste,[1]; [8],sweet
MoneIlin,Sweetness by weight,[3]; compared to sucrose,"800-2,000"
OC[C@H]1O[C@H](O[C@]2(CCl)O[C@H](CCl)[C@@H](O)[C@@H]2O)[C@H](O)[C@@H](O)[C@H]1Cl [sucralose],sweetness,[3]; [12],about 600 times sweeter than sucrose
"C=C1C[C@@]23CC[C@H]4[C@@](C)(CCC[C@@]4(C)C(=O)O[C@@H]4O[C@H](CO)[C@@H](O)[C@H](O)[C@H]4O)[C@@H]2CC[C@]1(O[C@@H]1O[C@H](CO)[C@@H](O)[C@H](O[C@@H]2O[C@H](CO)[C@@H](O)[C@H](O)[C@H]2O)[C@H]1O[C@@H]1O[C@H](CO)[C@@H](O)[C@H](O)[C@H]1O)C3 [0.05 mMol Reb-A, Rebaudioside A]",Color,[1]; [8],Slightly Yellow
"NCCCC[C@H](N)C(=O)O [0.1 mMol Lys, Lysine]",Color,[1]; [13],Brown
same,Smell,[1]; [13],Popcorn
same,Taste,[1]; [13],Sweet
"N[C@@H](Cc1ccc(O)cc1)C(=O)O [18.1 mg Tyr, Tyrosine]",Color,[1]; [7],No color
same,Smell,[1]; [7],neutral
same,Taste,[1]; [7],Slightly sweet
"O=C[C@H](O)[C@@H](O)[C@H](O)CO [Xyl, Xylose]",% degradation,"[4]; Phe + Xyl, pH = 7.0, 1.0 h",6.3%
"NCCCC[C@H](N)C(=O)O [14.7 mg Lys, Lysine]",Color,[1]; [7],brown
same,Smell,[1]; [7],Popcorn
same,Taste,[1]; [7],Slightly sweet
"CSCC[C@H](N)C(=O)O [14.9 mg Met, Methionine]",Color,[1]; [7],Very Slightly
same,Smell,[1]; [7],Sulfuric
same,Taste,[1]; [7],Slightly sweet
"O=C[C@H](O)[C@@H](O)[C@H](O)[C@H](O)C(=O)O [18 mg Glucuronic Acid, Glucuronic Acid]",Color,[5],No color
same,Smell,[5],neutral
same,Taste,[5],No taste
"C[C@@H](O)[C@H](N)C(=O)O [11.91 mg Thr, Threonine]",Color,[1]; [7],Very Slightly
same,Smell,[1]; [7],"Vanilla, butter"
same,Taste,[1]; [7],Slightly sweet
"N[C@@H](Cc1ccccc1)C(=O)O [Phe 60 mMol, Phenylalanine]",Color,[1]; [9],Slightly Yellow
same,Smell,[1]; [9],flowery/bloomy-caramel
same,Taste,[1]; [9],Sweet
"O=C(O)[C@@H]1CCCN1 [11.5 mg Pro, Proline]",Color,[1]; [7],Slightly Yellow
same,Smell,[1]; [7],"Neutral, slightly"
same,Taste,[1]; [7],Slightly sweet
"N[C@@H](Cc1ccccc1)C(=O)O [16.5 mg Phe, Phenylalanine]",Color,[1]; [14],Slightly Yellow
same,Smell,[1]; [14],"Caramel, burnt"
same,Taste,"[1]; after reaction, after dilution 1:20 (Example 58)",Sweet
same,Color,[1]; [15],No color
same,Smell,[1]; [15],Neutral
same,Taste,"[1]; before reaction, after dilution 1:20 (Example 58)",No taste
same,Color,[1]; [7],Very Slightly
same,Smell,[1]; [7],"Bloomy, caramel"
same,Taste,[1]; [7],Slightly sweet
same,Color,[5],No color
same,Smell,[5],neutral
same,Taste,[5],No taste
COC(=O)[C@H](Cc1ccccc1)NC(=O)[C@@H](N)CC(=O)O [Aspartame] (H-Asp-Phe-OMe),sweetness,[3]; [12],160-200 times sweeter than sucrose
"O=C[C@H](O)[C@@H](O)[C@H](O)CO [10 mmol Xyl, Xylose]",Color,"[1]; Glycerin 10 ml, 100 °C, 40 min",Slightly Yellow
same,Smell,"[1]; Glycerin 10 ml, 100 °C, 40 min",Slightly Popcorn
same,Color,"[1]; Glycerin 10 ml, 1 h, 120 °C",No color
same,Smell,"[1]; Glycerin 10 ml, 1 h, 120 °C",neutral
O=S(=O)([O-])NC1CCCCC1.[Na+] [sodium cyclamate],sweetness,[3]; [12],about 30 times sweeter than sucrose
"N[C@@H](CO)C(=O)O [10.5 mg Ser, Serine]",Color,[1]; [7],Slightly Yellow
same,Smell,[1]; [7],Lotus flower
same,Taste,[1]; [7],Slightly sweet
"N[C@@H](Cc1ccccc1)C(=O)O [3.3 mMol Phe, Phenylalanine]",Color,"[1]; Glycerin 10 ml, 100 °C, 5 min",No color
same,Smell,"[1]; Glycerin 10 ml, 100 °C, 5 min",Slightly bloomy
same,Color,"[1]; Glycerin 10 ml, 100 °C, 10 min",No color
same,Smell,"[1]; Glycerin 10 ml, 100 °C, 10 min",flowery/bloomy
same,Color,"[1]; Glycerin 10 ml, 100 °C, 20 min",Slightly Yellow
same,Smell,"[1]; Glycerin 10 ml, 100 °C, 20 min",flowery/bloomy
same,Color,"[1]; Glycerin 10 ml, 100 °C, 40 min",Yellow-slightly
same,Smell,"[1]; Glycerin 10 ml, 100 °C, 40 min",flowery/bloomy
same,Color,"[1]; Glycerin 10 ml, 1 h, 120 °C",Brown
same,Smell,"[1]; Glycerin 10 ml, 1 h, 120 °C",flowery/bloomy
"C=C1C[C@@]23CC[C@H]4[C@@](C)(CCC[C@@]4(C)C(=O)O[C@@H]4O[C@H](CO)[C@@H](O)[C@H](O)[C@H]4O)[C@@H]2CC[C@]1(O[C@@H]1O[C@H](CO)[C@@H](O)[C@H](O[C@@H]2O[C@H](CO)[C@@H](O)[C@H](O)[C@H]2O)[C@H]1O[C@@H]1O[C@H](CO)[C@@H](O)[C@H](O)[C@H]1O)C3 [Reb-A, Rebaudioside A]",anti-oxidant properties,[6],substantial anti-oxidant properties
O=C[C@H](O)[C@H]1OC(=O)[C@@H](O)[C@H]1O [Glucuronolactone],Color,[1]; [11],Deep Yellow
same,Smell,[1]; [11],Burnt sugar
same,Taste,[1]; [11],Bitter
same,consumption in the reaction with Phe,[4],completely consumed
"O=C[C@H](O)[C@H]1OC(=O)[C@@H](O)[C@H]1O [0.1 mMol GlucLac, Glucuronolactone]",Color,[1]; [10],Almost black
same,Intensity of Smell,[1]; [10],+++
same,Smell,[1]; [10],Burnt sugar
same,Taste,[1]; [10],Bitter

# — US11985994B2, “Sweetener and flavor compositions, methods of making and methods of use thereof” (EPC Natural Products Co., Ltd., priority 2018, dated 2024)
